Literature values, collected in US5932763A, “Inhibition of matrix metalloproteases by 2-(ω-arolalkyl)-4-biaryl-4-oxobutyric acids” (Bayer Corporation, priority 1997, dated 1999).

Key:
[1] = system: human ovarian carcinoma xenografts; conditions: mouse, in vivo
[2] = system: human colon tumor; conditions: given intraperitoneally; orthotopic model in nude mice
[3] = Child, et al., J. Pharm. Sci., 66, 466, 1977

In the case of `CNC(=O)[C@H](Cc1ccccc1)NC(=O)[C@H](CC(C)C)[C@H](CSc1cccs1)C(=O)NO` [batimastat], the “survival of mice bearing human ovarian carcinoma xenografts” value [1] is given as “prolongs the survival” and the “human colon tumor growth and spread” value [2] is given as “inhibits human colon tumor growth and spread”.
In the case of `O=C(O)CC(C(=O)c1ccc(-c2ccccc2)cc1)c1ccccc1` (centres unmarked) [LXXVII], the “activity of fenbufen analogs (described as inactive)” value (from here on “activity of fenbufen analogs”) [3] is given as “inactive”.
In the case of `CC(CC(=O)c1ccc(-c2ccccc2)cc1)C(=O)O` (centres unmarked) [XLVII], the “activity of fenbufen analogs” value [3] is given as “inactive”.
For `O=C(CC(C(=O)O)c1ccccc1)c1ccc(-c2ccccc2)cc1` (centres unmarked) [XLIX], the “activity of fenbufen analogs” value [3] is given as “inactive”.
